Test results published in ChEMBL document CHEMBL2321873, “1-(4-Phenylpiperazin-1-yl)-2-(1H-pyrazol-1-yl)ethanones as novel CCR1 antagonists” (Bioorg Med Chem Lett, 2013).
Activity calls are given as the source filed them.

Experiments:
[1] = target: T1, Atypical chemokine receptor 1 (Homo sapiens) (UniProt Q16570); assay: Binding affinity to Duffy (unknown origin) at 10 uM by radioligand displacement assay
T1 sequence (whole entry): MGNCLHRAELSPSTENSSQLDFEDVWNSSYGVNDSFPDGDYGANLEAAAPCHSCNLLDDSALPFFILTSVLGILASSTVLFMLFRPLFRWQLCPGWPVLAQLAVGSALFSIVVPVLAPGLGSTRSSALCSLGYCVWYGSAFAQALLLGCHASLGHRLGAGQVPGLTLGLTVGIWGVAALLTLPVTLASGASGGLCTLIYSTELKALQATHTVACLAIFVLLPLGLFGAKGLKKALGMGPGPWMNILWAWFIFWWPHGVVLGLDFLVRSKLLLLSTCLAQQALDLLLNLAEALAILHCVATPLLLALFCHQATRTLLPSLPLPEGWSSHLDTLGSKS

[2] = target: C-X-C chemokine receptor type 4 (Homo sapiens) (UniProt P61073); assay: Antagonist activity at CXCR4 (unknown origin) assessed as inhibition of chemotaxis at 10 uM
Chain of C-X-C chemokine receptor type 4 (Homo sapiens) (P61073 whole entry): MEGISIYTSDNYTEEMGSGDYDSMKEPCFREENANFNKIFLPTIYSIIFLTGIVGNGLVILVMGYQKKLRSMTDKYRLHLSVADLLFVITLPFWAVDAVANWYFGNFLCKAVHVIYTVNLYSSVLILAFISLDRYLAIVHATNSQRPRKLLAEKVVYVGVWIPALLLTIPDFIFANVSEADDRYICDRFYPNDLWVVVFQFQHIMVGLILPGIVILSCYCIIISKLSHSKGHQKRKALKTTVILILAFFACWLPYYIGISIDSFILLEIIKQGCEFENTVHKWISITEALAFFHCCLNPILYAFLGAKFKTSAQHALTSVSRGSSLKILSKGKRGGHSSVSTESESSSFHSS

[3] = target: T2, C-X-C chemokine receptor type 3 (Homo sapiens) (UniProt P49682); assay: Antagonist activity at CXCR3 (unknown origin) assessed as inhibition of chemotaxis at 10 uM
T2 sequence (whole entry): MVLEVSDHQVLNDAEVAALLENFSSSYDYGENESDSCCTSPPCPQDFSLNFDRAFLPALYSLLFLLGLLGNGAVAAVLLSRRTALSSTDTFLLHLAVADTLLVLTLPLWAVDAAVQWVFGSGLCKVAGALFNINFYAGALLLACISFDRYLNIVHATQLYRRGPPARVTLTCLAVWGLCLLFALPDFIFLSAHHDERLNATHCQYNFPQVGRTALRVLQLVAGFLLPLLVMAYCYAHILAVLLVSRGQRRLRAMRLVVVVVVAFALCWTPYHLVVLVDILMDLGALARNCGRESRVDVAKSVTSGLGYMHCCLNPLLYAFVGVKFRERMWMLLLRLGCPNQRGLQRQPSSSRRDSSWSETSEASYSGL

[4] = target: T3, C-C chemokine receptor type 4 (Homo sapiens) (UniProt P51679); assay: Binding affinity to CCR4 (unknown origin) at 10 uM by radioligand displacement assay
T3 sequence (whole entry): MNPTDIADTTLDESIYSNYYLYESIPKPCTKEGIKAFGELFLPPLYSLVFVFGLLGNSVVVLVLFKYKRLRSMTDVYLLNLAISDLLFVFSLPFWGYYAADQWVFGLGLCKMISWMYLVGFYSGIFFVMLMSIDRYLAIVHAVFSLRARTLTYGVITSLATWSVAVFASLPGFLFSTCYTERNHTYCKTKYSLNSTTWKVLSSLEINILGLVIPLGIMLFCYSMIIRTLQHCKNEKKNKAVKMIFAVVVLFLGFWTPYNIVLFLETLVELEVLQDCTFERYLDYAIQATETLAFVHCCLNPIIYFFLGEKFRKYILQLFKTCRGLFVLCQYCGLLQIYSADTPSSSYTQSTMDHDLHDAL

[5] = target: C-C chemokine receptor type 2 (Homo sapiens) (UniProt P41597); assay: Antagonist activity at CCR2 (unknown origin) assessed as inhibition of chemotaxis at 10 uM
Chain of C-C chemokine receptor type 2 (Homo sapiens) (P41597 whole entry, looked up): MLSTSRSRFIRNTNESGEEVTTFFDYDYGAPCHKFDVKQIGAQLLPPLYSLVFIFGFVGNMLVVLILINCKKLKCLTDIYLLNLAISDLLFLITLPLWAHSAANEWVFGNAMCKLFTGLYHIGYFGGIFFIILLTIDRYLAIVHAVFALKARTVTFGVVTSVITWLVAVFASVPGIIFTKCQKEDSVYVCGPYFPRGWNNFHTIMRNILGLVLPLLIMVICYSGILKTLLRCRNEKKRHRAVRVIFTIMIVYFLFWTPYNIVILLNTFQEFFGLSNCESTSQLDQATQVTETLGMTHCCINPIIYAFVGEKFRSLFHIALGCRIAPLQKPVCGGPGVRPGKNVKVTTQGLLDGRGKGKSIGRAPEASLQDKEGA

[6] = target: T2, C-X-C chemokine receptor type 3 (Homo sapiens); assay: Antagonist activity at CXCR3 (unknown origin) assessed as inhibition of calcium flux at 10 uM; format: functional
[7] = target: T1, Atypical chemokine receptor 1 (Homo sapiens); assay: Antagonist activity at Duffy (unknown origin) assessed as inhibition of chemotaxis at 10 uM
[8] = target: T4, C-C chemokine receptor type 10 (Homo sapiens) (UniProt P46092); assay: Binding affinity to CCR10 (unknown origin) at 10 uM by radioligand displacement assay
T4 sequence (whole entry): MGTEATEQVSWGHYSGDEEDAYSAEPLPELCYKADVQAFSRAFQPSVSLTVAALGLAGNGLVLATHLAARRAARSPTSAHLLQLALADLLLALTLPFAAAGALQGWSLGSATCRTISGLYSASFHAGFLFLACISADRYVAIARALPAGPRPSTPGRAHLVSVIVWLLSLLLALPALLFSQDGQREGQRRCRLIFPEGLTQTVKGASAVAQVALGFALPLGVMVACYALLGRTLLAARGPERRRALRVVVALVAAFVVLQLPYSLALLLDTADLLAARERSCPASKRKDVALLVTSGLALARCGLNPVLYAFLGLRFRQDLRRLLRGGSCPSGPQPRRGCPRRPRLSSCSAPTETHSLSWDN

[9] = target: T5, C-C chemokine receptor type 9 (Homo sapiens) (UniProt P51686); assay: Antagonist activity at CCR9 (unknown origin) assessed as inhibition of chemotaxis at 10 uM
T5 sequence (whole entry): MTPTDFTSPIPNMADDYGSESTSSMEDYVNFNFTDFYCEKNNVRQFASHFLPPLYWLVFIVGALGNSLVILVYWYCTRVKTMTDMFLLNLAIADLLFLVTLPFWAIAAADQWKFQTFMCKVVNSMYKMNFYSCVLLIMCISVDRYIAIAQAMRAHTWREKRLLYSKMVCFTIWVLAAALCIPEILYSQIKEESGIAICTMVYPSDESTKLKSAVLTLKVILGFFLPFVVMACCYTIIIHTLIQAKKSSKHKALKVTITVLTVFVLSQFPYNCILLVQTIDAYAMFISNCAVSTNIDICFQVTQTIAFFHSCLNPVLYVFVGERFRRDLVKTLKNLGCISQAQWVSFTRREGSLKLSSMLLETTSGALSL

[10] = target: T6, C-C chemokine receptor type 7 (Homo sapiens) (UniProt P32248); assay: Binding affinity to CCR7 (unknown origin) at 10 uM by radioligand displacement assay
T6 sequence (whole entry): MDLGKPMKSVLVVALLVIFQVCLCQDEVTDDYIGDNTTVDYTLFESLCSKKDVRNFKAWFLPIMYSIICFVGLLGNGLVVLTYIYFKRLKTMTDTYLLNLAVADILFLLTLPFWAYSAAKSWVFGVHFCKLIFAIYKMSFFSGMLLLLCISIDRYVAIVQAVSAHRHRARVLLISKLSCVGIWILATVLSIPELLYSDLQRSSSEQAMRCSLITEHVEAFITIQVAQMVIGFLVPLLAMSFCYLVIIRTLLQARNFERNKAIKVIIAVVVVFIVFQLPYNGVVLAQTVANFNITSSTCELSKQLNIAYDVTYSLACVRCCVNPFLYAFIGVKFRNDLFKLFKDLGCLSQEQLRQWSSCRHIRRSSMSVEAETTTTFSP

COc1cc(N2CCN(C(=O)Cn3nc(C(F)(F)F)c(Cl)c3C)CC2)ccc1Cl
inactive: Activity [1] | inhibition [2] | inhibition [3] | Activity [4] | inhibition [5] | inhibition [6] | inhibition [7] | Activity [8] | inhibition [9] | Activity [10]
